Data from paper PMC11062899, “De novo development of small cyclic peptides that are orally bioavailable” (Nature Chemical Biology, 2023).
“And” between values parts separate entries of the source, which are not always exact repeats. Equal entries are not always repeated.

What was measured:
human α-thrombin = human α-thrombin (Homo sapiens, UniProt P00734); assay: Protease inhibition, Ki for human α-thrombin (fluorogenic substrate Z-Gly-Gly-Arg-AMC); format: biochemical; details: replicates R1-R3
Outline: (§1)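 Ki derived through Cheng–Prusoff from IC50s (four-parameter logistic fit) against activity of peptide-free controls. Product fluorescence was read every 3 min over 30 min at 25 °C, substrate Z-Gly-Gly-Arg-AMC at 50 μM. Enzyme was 2 nM human or 3 nM rat α-thrombin, pH 7.4 buffer.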

[1] = Metabolic stability in rat liver microsomes (RLMs); details: rat, microsomes
porcine pepsin = molecular target: T1, porcine pepsin (Sus scrofa, UniProt P00791); assay: Peptide stability in simulated gastric fluid (SGF); format: in vitro ADME; details: for SGF stability, Residual peptide Average / SGF stability, Residual peptide: after 8 h vs 0 h (TIC); for SGF stability, Residual peptide Average: average of R1-R3; for SGF stability, Residual peptide: single replicates R1-R3; for remaining at 8 h: simulated gi fluid, 37 °C, pH 1.2, read-out: Proteolytic stability: SGF (8 h) % remaining
T1 construct: 0.32 g of porcine pepsin (Sigma-Aldrich, P7125) was dissolved under gentle agitation; purchased Sigma-Aldrich P7125
T1 sequence (P00791 60-385): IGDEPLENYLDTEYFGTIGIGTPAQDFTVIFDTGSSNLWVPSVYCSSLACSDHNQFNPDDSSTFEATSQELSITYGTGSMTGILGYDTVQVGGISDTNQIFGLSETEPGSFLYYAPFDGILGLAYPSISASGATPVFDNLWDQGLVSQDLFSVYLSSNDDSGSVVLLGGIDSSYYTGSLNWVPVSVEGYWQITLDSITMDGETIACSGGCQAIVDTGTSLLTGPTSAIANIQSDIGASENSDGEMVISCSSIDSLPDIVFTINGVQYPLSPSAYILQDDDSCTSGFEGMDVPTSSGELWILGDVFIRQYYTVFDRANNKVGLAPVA
Outline: (§2)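 Peptide from a 1 mM DMSO stock was added to fluid pre-warmed at 37 °C. SGF was pH 1.2 NaCl with porcine pepsin (0.32 g per 100 ml), and SIF was pH 6.8 potassium phosphate with porcine pancreatin (1 g per 100 ml). Supernatant peptide was quantified by LC–MS, with residual expressed as T1/T0.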

[2] = Passive artificial membrane permeability (PAMPA); details: for PAMPA permeability: % permeability: 50 μM, 12–18 h, acceptor concentration relative to equilibrium; for Papp at 50 μM / Permeability% Average / Permeability% R1 / Permeability% R3: PAMPA; for Papp at 50 μM: pH 7.4; for Permeability% Average: average of R1-R3; for Permeability% R1: replicate R1; for Permeability% R1 / Permeability% R3: TIC of top well sample relative to sample at theoretical equilibrium; for Permeability% R3: replicate R3
rat α-thrombin = molecular target: T2, rat α-thrombin (Rattus norvegicus, UniProt P18292); assay: Protease inhibition, Ki for rat α-thrombin (fluorogenic substrate Z-Gly-Gly-Arg-AMC); format: biochemical; details: replicates R1-R3
T2 construct: rat α-thrombin (Molecular Innovations) were used at final concentrations of 2 nM and 3 nM; purchased Molecular Innovations
Outline: as §1

porcine pancreatin = assay: Peptide stability in simulated intestinal fluid (SIF); format: in vitro ADME; details: after 8 h vs 0 h (TIC); for SIF stability, Residual peptide Average: average of R1-R3
Outline: as §2

[3] = as above; format: in vitro ADME, porcine; details: simulated gi fluid; 8 h, 37 °C, pH 6.8; read-out: Proteolytic stability: SIF (8 h) % remaining
Outline: as §2

[4] = peptide 1.33E+02 uM, slope of proteolytic substrate cleavage over time
[5] = CL (ul/min/mg protein) R1, RLM CL, replicate R1
[6] = CL (ul/min/mg protein) R2, RLM CL, replicate R2
[7] = CL (ul/min/mg protein) R3, RLM CL, replicate R3
[8] = Half Life (min) R2, RLM metabolic stability, replicate R2, 0-60 min
[9] = Half Life (min) R3, RLM metabolic stability, replicate R3, 0-60 min
[10] = Metabolic stability: RLM CL (ul/min/mg), RLMs, mean and SD, three measurements

## CC(C)[C@@H]1NC(=O)[C@@H](NC(=O)c2ccc(Cl)s2)CNC(=O)CCSCc2cccc(n2)CSCCNC1=O [compound 19]
Human α-thrombin; peptide 1.02E-03 uM
  Human alpha thrombin inhibition, slope normalized to DMSO: 98.0 and 91.0 and 96.2
Human α-thrombin; peptide 1.04E+00 uM
  Human alpha thrombin inhibition, slope normalized to DMSO: 90.3 and 89.1 and 92.4
Human α-thrombin; peptide 1.27E-04 uM
  Human alpha thrombin inhibition, slope normalized to DMSO: 96.9 and 100.1 and 95.3
Human α-thrombin; peptide 1.30E-01 uM
  Human alpha thrombin inhibition, slope normalized to DMSO: 95.8 and 125.1 and 96.3
Human α-thrombin; [4]
  Human alpha thrombin inhibition, slope normalized to DMSO: 74.4 and 73.1 and 82.6
Human α-thrombin; peptide 1.63E-02 uM
  Human alpha thrombin inhibition, slope normalized to DMSO: 97.3 and 90.7 and 96.5
Human α-thrombin; peptide 1.67E+01 uM
  Human alpha thrombin inhibition, slope normalized to DMSO: 83.1 and 82.1 and 94.4
Human α-thrombin; peptide 2.03E-03 uM
  Human alpha thrombin inhibition, slope normalized to DMSO: 96.1 and 96.3 and 98.7
Human α-thrombin; peptide 2.08E+00 uM
  Human alpha thrombin inhibition, slope normalized to DMSO: 89.8 and 84.9 and 90.4
Human α-thrombin; peptide 2.54E-04 uM
  Human alpha thrombin inhibition, slope normalized to DMSO: 98.3 and 94.9 and 77.9
Human α-thrombin; peptide 2.60E-01 uM
  Human alpha thrombin inhibition, slope normalized to DMSO: 93.9 and 90.6 and 94.3
Human α-thrombin; peptide 3.18E-05 uM
  Human alpha thrombin inhibition, slope normalized to DMSO: 98.5 and 92.5 and 100.2
Human α-thrombin; peptide 3.26E-02 uM
  Human alpha thrombin inhibition, slope normalized to DMSO: 95.9 and 95.8 and 99.6
Human α-thrombin; peptide 3.33E+01 uM
  Human alpha thrombin inhibition, slope normalized to DMSO: 78.3 and 75.1 and 78.9
Human α-thrombin; peptide 4.07E-03 uM
  Human alpha thrombin inhibition, slope normalized to DMSO: 94.7 and 93.4 and 96.1
Human α-thrombin; peptide 4.17E+00 uM
  Human alpha thrombin inhibition, slope normalized to DMSO: 83.3 and 83.5 and 89.8
Human α-thrombin; peptide 5.09E-04 uM
  Human alpha thrombin inhibition, slope normalized to DMSO: 93.5 and 91.5 and 93.7
Human α-thrombin; peptide 5.21E-01 uM
  Human alpha thrombin inhibition, slope normalized to DMSO: 92.8 and 90.2 and 92.1
Human α-thrombin; peptide 6.36E-05 uM
  Human alpha thrombin inhibition, slope normalized to DMSO: 97.2 and 93.5 and 90.4
Human α-thrombin; peptide 6.51E-02 uM
  Human alpha thrombin inhibition, slope normalized to DMSO: 99.6 and 94.9 and 95.6
Human α-thrombin; peptide 6.67E+01 uM
  Human alpha thrombin inhibition, slope normalized to DMSO: 77.2 and 75.7 and 77.5
Human α-thrombin; peptide 8.14E-03 uM
  Human alpha thrombin inhibition, slope normalized to DMSO: 97.4 and 94.0 and 99.7
Human α-thrombin; peptide 8.33E+00 uM
  Human alpha thrombin inhibition, slope normalized to DMSO: 84.1 and 83.5 and 81.2
[1]; [5]
  microsomal CLint: 13.1 µL/min/mg
[1]; [6]
  microsomal CLint: 42.3 µL/min/mg
[1]; [7]
  microsomal CLint: 68.3 µL/min/mg
[1]; [8]
  half-life: 32.8 min
[1]; [9]
  half-life: 20.3 min
[1]; Metabolic stability: Half life T1/2 (min), RLMs, mean and SD, three measurements
  half-life: 53 ± 38 min
[1]; [10]
  microsomal CLint: 41 ± 23 µL/min/mg
Porcine pepsin
  SGF stability, Residual peptide Average: 94.69
  SGF stability, Residual peptide: 92.56 and 99.47 and 92.05
  remaining at 8 h: 95 ± 4%
[2]
  PAMPA permeability: % permeability: 5.7 ± 1.3%
  Papp at 50 μM: 0.38 ×10⁻⁶ cm/s
  Permeability% Average: 5.7%
  Permeability% R1: 7.10%
  Permeability% R3: 4.56%
Rat α-thrombin; [4]
  Rat alpha thrombin inhibition, slope normalized to DMSO: 43.4 and 70.6
Rat α-thrombin; peptide 1.67E+01 uM
  Rat alpha thrombin inhibition, slope normalized to DMSO: 56.7 and 58.6
Rat α-thrombin; peptide 2.08E+00 uM
  Rat alpha thrombin inhibition, slope normalized to DMSO: 84.9 and 85.4 and 90.4
Rat α-thrombin; peptide 3.33E+01 uM
  Rat alpha thrombin inhibition, slope normalized to DMSO: 53.0 and 50.7 and 58.4
Rat α-thrombin; peptide 4.17E+00 uM
  Rat alpha thrombin inhibition, slope normalized to DMSO: 73.8 and 75.0 and 69.4
Rat α-thrombin; peptide 6.67E+01 uM
  Rat alpha thrombin inhibition, slope normalized to DMSO: 39.7 and 48.9 and 63.6
Rat α-thrombin; peptide 8.33E+00 uM
  Rat alpha thrombin inhibition, slope normalized to DMSO: 59.4 and 61.3 and 72.8
Porcine pancreatin
  SIF stability, Residual peptide Average: 62.00
Porcine pancreatin; single replicates R1-R3
  SIF stability, Residual peptide: 68.18 and 45.06 and 72.76
[3]
  remaining at 8 h: 62 ± 15%

## NC(=O)NCCC[C@@H]1NC(=O)[C@@H](NC(=O)c2ccc(Cl)s2)CNC(=O)CCSCc2cccc(n2)CSCCNC1=O [compound 20]
Human α-thrombin; peptide 1.02E-03 uM
  Human alpha thrombin inhibition, slope normalized to DMSO: 98.9 and 95.1 and 89.8
Human α-thrombin; peptide 1.04E+00 uM
  Human alpha thrombin inhibition, slope normalized to DMSO: 90.6 and 90.5 and 80.1
Human α-thrombin; peptide 1.27E-04 uM
  Human alpha thrombin inhibition, slope normalized to DMSO: 100.0 and 98.9 and 93.2
Human α-thrombin; peptide 1.30E-01 uM
  Human alpha thrombin inhibition, slope normalized to DMSO: 69.5 and 98.5 and 88.7
Human α-thrombin; [4]
  Human alpha thrombin inhibition, slope normalized to DMSO: 42.6 and 48.7 and 48.9
Human α-thrombin; peptide 1.63E-02 uM
  Human alpha thrombin inhibition, slope normalized to DMSO: 88.4 and 95.2 and 91.8
Human α-thrombin; peptide 1.67E+01 uM
  Human alpha thrombin inhibition, slope normalized to DMSO: 73.5 and 78.5 and 58.5
Human α-thrombin; peptide 2.03E-03 uM
  Human alpha thrombin inhibition, slope normalized to DMSO: 99.2 and 96.7 and 91.4
Human α-thrombin; peptide 2.08E+00 uM
  Human alpha thrombin inhibition, slope normalized to DMSO: 75.3 and 92.4 and 77.6
Human α-thrombin; peptide 2.54E-04 uM
  Human alpha thrombin inhibition, slope normalized to DMSO: 99.2 and 99.7 and 92.0
Human α-thrombin; peptide 2.60E-01 uM
  Human alpha thrombin inhibition, slope normalized to DMSO: 120.3 and 99.5 and 85.9
Human α-thrombin; peptide 3.18E-05 uM
  Human alpha thrombin inhibition, slope normalized to DMSO: 87.6 and 101.9 and 93.6
Human α-thrombin; peptide 3.26E-02 uM
  Human alpha thrombin inhibition, slope normalized to DMSO: 82.7 and 95.9 and 92.3
Human α-thrombin; peptide 3.33E+01 uM
  Human alpha thrombin inhibition, slope normalized to DMSO: 52.1 and 61.8 and 43.1
Human α-thrombin; peptide 4.07E-03 uM
  Human alpha thrombin inhibition, slope normalized to DMSO: 96.4 and 99.1 and 90.2
Human α-thrombin; peptide 4.17E+00 uM
  Human alpha thrombin inhibition, slope normalized to DMSO: 69.9 and 89.4 and 83.9
Human α-thrombin; peptide 5.09E-04 uM
  Human alpha thrombin inhibition, slope normalized to DMSO: 96.6 and 98.5 and 95.0
Human α-thrombin; peptide 5.21E-01 uM
  Human alpha thrombin inhibition, slope normalized to DMSO: 80.4 and 93.9 and 89.5
Human α-thrombin; peptide 6.36E-05 uM
  Human alpha thrombin inhibition, slope normalized to DMSO: 91.9 and 97.1 and 90.0
Human α-thrombin; peptide 6.51E-02 uM
  Human alpha thrombin inhibition, slope normalized to DMSO: 80.1 and 98.2 and 90.6
Human α-thrombin; peptide 6.67E+01 uM
  Human alpha thrombin inhibition, slope normalized to DMSO: 54.5 and 43.3 and 24.5
Human α-thrombin; peptide 8.14E-03 uM
  Human alpha thrombin inhibition, slope normalized to DMSO: 89.1 and 102.0 and 83.1
Human α-thrombin; peptide 8.33E+00 uM
  Human alpha thrombin inhibition, slope normalized to DMSO: 94.4 and 79.6 and 74.6
[1]; [5]
  microsomal CLint: 29.5 µL/min/mg
[1]; [6]
  microsomal CLint: 24 µL/min/mg
[1]; [7]
  microsomal CLint: 26.2 µL/min/mg
[1]; Half Life (min) R1, RLM metabolic stability, replicate R1, 0-60 min
  half-life: 46.9 min
[1]; [8]
  half-life: 57.7 min
[1]; [9]
  half-life: 53 min
[1]; [10]
  microsomal CLint: 27 ± 2 µL/min/mg
Porcine pepsin
  SGF stability, Residual peptide Average: 96.69
  SGF stability, Residual peptide: 100.68 and 91.38 and 98.01
  remaining at 8 h: 97 ± 5%
[2]
  PAMPA permeability: % permeability: 0.99 ± 0.28%
  Papp at 50 μM: 0.0646 ×10⁻⁶ cm/s
  Permeability% Average: 1.0%
  Permeability% R1: 1.25%
  Permeability% R3: 1.03%
Rat α-thrombin; [4]
  Rat alpha thrombin inhibition, slope normalized to DMSO: 12.2 and 19.4 and 24.3
Rat α-thrombin; peptide 1.67E+01 uM
  Rat alpha thrombin inhibition, slope normalized to DMSO: 41.8 and 45.6 and 42.9
Rat α-thrombin; peptide 2.08E+00 uM
  Rat alpha thrombin inhibition, slope normalized to DMSO: 71.5 and 79.0 and 60.4
Rat α-thrombin; peptide 3.33E+01 uM
  Rat alpha thrombin inhibition, slope normalized to DMSO: 25.4 and 28.0 and 27.8
Rat α-thrombin; peptide 4.17E+00 uM
  Rat alpha thrombin inhibition, slope normalized to DMSO: 66.5 and 70.9 and 68.3
Rat α-thrombin; peptide 6.67E+01 uM
  Rat alpha thrombin inhibition, slope normalized to DMSO: 16.3 and 21.9 and 8.4
Rat α-thrombin; peptide 8.33E+00 uM
  Rat alpha thrombin inhibition, slope normalized to DMSO: 56.5 and 61.2 and 59.0
Porcine pancreatin
  SIF stability, Residual peptide Average: 92.33
[3]
  remaining at 8 h: 93 ± 13%
